Patent EP4707280A1, “1,4-CINEOLE DERIVATIVE AND INTERMEDIATE THEREOF, HERBICIDE CONTAINING SAID DERIVATIVE AS ACTIVE INGREDIENT, METHOD FOR USING HERBICIDE, AND METHOD FOR PREPARING AGROCHEMICAL COMPOSITION” (HOKKO CHEMICAL INDUSTRY CO., LTD., priority 2023, dated 2024)

Tests used:
Type in all cases: in vivo
Monochoria vaginalis [1] = test: Test Example 1: herbicidal effect test by soil application in paddy rice; conditions: 120 g active ingredient per 10 ares, applied immediately after sowing, flooded pots, 14 days after application
Method: (§1) Wagner pots with an area of […] were filled with paddy soil, followed by addition of water and incorporation of chemical fertilizer (N:P:K = 16:16:16), after which puddling was performed. After that, seeds of Echinochloa crus-galli var. formosensis, broad-leaved weeds (Lindernia pyxidaria and Monochoria vaginalis), and Scirpus juncoides were sown at a depth of 0 cm to 1 cm, 30 seeds each. Immediately after sowing, the pots were flooded and a water depth of approximately 3 cm was maintained. Subsequent management was conducted in a glass greenhouse. Immediately thereafter, an emulsifiable concentrate prepared according to Formulation Example 5 using the compound shown below was diluted with water, and a specified amount of the diluted solution was applied by dropper. The amount of the active ingredient to be applied was equivalent to 120 g per 10 ares.
(§2) The present test was conducted in duplicate for each chemical concentration group, and the weed inhibition rate (%) was determined 14 days after chemical application using the following formula (Math. 1). [formula]

Chenopodium album = test: Test Example 3: herbicidal effect test by soil application in upland field; conditions: 120 g per 10 ares, sprayed one day after sowing, 14 days after application, read-out: weed inhibition rate
Method in brief: (§3)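 Weed inhibition (%) was assessed 14 days after treatment, in duplicate per concentration group. Seeds had been mixed into the upper 1 cm of upland alluvial loam, and the soil surface was sprayed one day later with the diluted emulsifiable concentrate at 120 g active ingredient per 10 ares.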

Echinochloa crus-galli [2] = test: as above; conditions: 120 g per 10 ares, sprayed one day after sowing, 14 days after application; for inhibition at 1200 g/ha: Echinochloa crus-galli, read-out: weed inhibition rate
Method in brief: as §3

Digitaria ciliaris [3] = test: as above; conditions: 120 g per 10 ares, sprayed one day after sowing, 14 days after application
Method in brief: as §3

[4] = tested on: Echinochloa crus-galli var. formosensis; test: Test Example 6: herbicidal effect test by application during growth period of paddy rice (low dose); conditions: 7.5 g per 10 ares, applied seven days after sowing, flooded pots, 14 days after application; for inhibition at 75 g/ha: Echinochloa crus-galli, read-out: weed inhibition rate
Method in brief: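 Puddled, fertilised paddy soil was sown with 30 seeds per species and flooded to about 3 cm. After 7 days in a glass greenhouse, the diluted emulsifiable concentrate went into the water by dropper at 7.5 g/10 a. Effect scored at 14 days.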

Echinochloa crus-galli [5] = test: Test Example 4: herbicidal effect test by stem and leaf treatment in upland field; conditions: 120 g per 10 ares, sprayed seven days after sowing, upland soil, 14 days after application; for inhibition at 1200 g/ha: Echinochloa crus-galli, read-out: weed inhibition rate
[6] = tested on: Echinochloa crus-galli var. formosensis; test: Test Example 5: herbicidal effect test by soil application in paddy rice (low dose); conditions: 7.5 g per 10 ares, applied immediately after sowing, flooded pots, 14 days after application; for inhibition at 75 g/ha: Echinochloa crus-galli, soil, 336 h, read-out: weed inhibition rate
Method in brief: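 Paddy soil in Wagner pots was fertilized (N:P:K 16:16:16), puddled, sown with 30 seeds per weed species at 0–1 cm, then flooded to ~3 cm in a glass greenhouse. Emulsifiable concentrate diluted in water was dropper-applied into floodwater immediately, at 7.5 g active ingredient per 10 ares; duplicates, scored at 14 days.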

[7] = tested on: Echinochloa crus-galli var. formosensis; test: Test Example 1: herbicidal effect test by soil application in paddy rice; conditions: 120 g active ingredient per 10 ares, applied immediately after sowing, flooded pots, 14 days after application; for pest or weed control at 1200 g/ha: Echinochloa crus-galli, soil, 336 h, read-out: weed inhibition rate
Method in brief: (§4)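 Treatment: 120 g active ingredient per 10 ares as a water-diluted emulsifiable concentrate, dropped onto flooded pots immediately after sowing. Thirty seeds per species went 0–1 cm into puddled paddy soil with 16:16:16 fertilizer, with ~3 cm flooding maintained in a glass greenhouse.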

Scirpus juncoides [8] = test: as above; conditions: 120 g active ingredient per 10 ares, applied immediately after sowing, flooded pots, 14 days after application; for pest or weed control at 1200 g/ha: Schoenoplectiella juncoides, soil, 336 h, read-out: weed inhibition rate
Method in brief: as §4

[9] = tested on: Echinochloa crus-galli var. formosensis; test: Test Example 2: herbicidal effect test by application during growth period of paddy rice; conditions: 120 g per 10 ares, applied seven days after sowing, flooded pots, 14 days after application; for inhibition at 1200 g/ha: Echinochloa crus-galli, read-out: weed inhibition rate
Method in brief: (§5)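 Paddy soil in Wagner pots was puddled with N:P:K 16:16:16 fertilizer, sown with 30 weed seeds per species at 0–1 cm and flooded to about 3 cm. Seven days after sowing, a water-diluted emulsifiable concentrate was dropped onto the water at 120 g active ingredient per 10 ares. Weed inhibition (%) was scored at 14 days, in duplicate.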

Echinochloa crus-galli [10] = test: Test Example 8: herbicidal effect test by stem and leaf treatment in upland field (low dose); conditions: 7.5 g per 10 ares, sprayed seven days after sowing, upland soil, 14 days after application; for inhibition at 75 g/ha: Echinochloa crus-galli, read-out: weed inhibition rate
Digitaria ciliaris [11] = test: Test Example 4: herbicidal effect test by stem and leaf treatment in upland field; conditions: 120 g per 10 ares, sprayed seven days after sowing, upland soil, 14 days after application; for inhibition at 1200 g/ha: Digitaria ciliaris, read-out: weed inhibition rate
Echinochloa crus-galli [12] = test: Test Example 7: herbicidal effect test by soil application in upland field (low dose); conditions: 7.5 g per 10 ares, sprayed one day after sowing, 14 days after application
Method in brief: (§6)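 Pre-emergence soil application: upland alluvial loam pots sown with weed seeds mixed into the top 1 cm; one day after sowing, a water-diluted emulsifiable concentrate was sprayed on the soil at 100 L per 10 a, delivering 7.5 g active ingredient per 10 a. Weed inhibition rate (%) scored 14 days after application, duplicate pots.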

Digitaria ciliaris [13] = test: as above; conditions: 7.5 g per 10 ares, sprayed one day after sowing, 14 days after application
Method in brief: as §6

Scirpus juncoides [14] = test: Test Example 2: herbicidal effect test by application during growth period of paddy rice; conditions: 120 g per 10 ares; applied seven days after sowing, flooded pots; 14 days after application
Method in brief: as §5

Monochoria vaginalis [15] = test: as above; conditions: 120 g per 10 ares; applied seven days after sowing, flooded pots; 14 days after application
Method in brief: as §5

Digitaria ciliaris [16] = test: Test Example 8: herbicidal effect test by stem and leaf treatment in upland field (low dose); conditions: 7.5 g per 10 ares, sprayed seven days after sowing, upland soil, 14 days after application
Amaranthus viridis = test: Test Example 3: herbicidal effect test by soil application in upland field; conditions: 120 g per 10 ares, sprayed one day after sowing, 14 days after application; for inhibition at 1200 g/ha: Amaranthus viridis, read-out: weed inhibition rate
Method in brief: as §3

Scirpus juncoides [17] = test: Test Example 5: herbicidal effect test by soil application in paddy rice (low dose); conditions: Schoenoplectiella juncoides, 336 h, 7.5 g per 10 ares, applied immediately after sowing, flooded pots, 14 days after application, read-out: weed inhibition rate
Method: as §2
as §1, with “(Monochoria” for “(Lindernia pyxidaria and Monochoria”, “7.5” for “120”
The present test was conducted in duplicate for each chemical concentration group, and the herbicidal effect was evaluated 14 days after chemical application using the same criteria as in Test Example 1.

[18] = Digitaria ciliaris, read-out: weed inhibition rate

Cc1ccc(CO[C@@H]2C[C@]3(C(C)C)O[C@@]2(C)CC3=O)cc1 [2-350, (1R,4S,5R)-1-isopropyl-4-methyl-5-[(4-methylbenzyl)oxy]-7-oxabicyclo[2.2.1]heptan-2-one]
≥ 80%: pest or weed control at 1200 g/ha (Monochoria vaginalis [1]; Pontederia vaginalis, soil, 336 h, read-out: weed inhibition rate) | inhibition at 1200 g/ha (Chenopodium album) | inhibition at 1200 g/ha (Echinochloa crus-galli [2]) | inhibition at 1200 g/ha (Digitaria ciliaris [3]; [18]) | inhibition at 75 g/ha [4] | inhibition at 1200 g/ha (Echinochloa crus-galli [5]) | inhibition at 75 g/ha [6] | pest or weed control at 1200 g/ha [7] | pest or weed control at 1200 g/ha (Scirpus juncoides [8]) | inhibition at 1200 g/ha [9] | inhibition at 75 g/ha (Echinochloa crus-galli [10]) | inhibition at 1200 g/ha (Digitaria ciliaris [11])

CC(C)[C@]12C[C@@H](OCc3ccccc3F)[C@](C)(C[C@@H]1Cl)O2 [1-12]
≥ 80%: weed inhibition rate (Monochoria vaginalis [1]) | weed inhibition rate (Echinochloa crus-galli [2]) | weed inhibition rate (Digitaria ciliaris [3]) | weed inhibition rate [4] | weed inhibition rate (Echinochloa crus-galli [5]) | weed inhibition rate [6] | weed inhibition rate (Echinochloa crus-galli [12]) | weed inhibition rate (Digitaria ciliaris [13]) | weed inhibition rate [7] | weed inhibition rate (Scirpus juncoides [8]) | weed inhibition rate [9] | weed inhibition rate (Scirpus juncoides [14]) | weed inhibition rate (Monochoria vaginalis [15]) | weed inhibition rate (Echinochloa crus-galli [10]) | weed inhibition rate (Digitaria ciliaris [16]) | weed inhibition rate (Digitaria ciliaris [11])

COc1ccc(CO[C@@H]2C[C@]3(C(C)C)O[C@@]2(C)CC3=O)cc1 [2-346, (1R,4S,5R)-1-isopropyl-5-((4-methoxybenzyl)oxy)-4-methyl-7-oxabicyclo[2.2.1]heptan-2-one]
≥ 80%: inhibition at 1200 g/ha (Amaranthus viridis) | inhibition at 1200 g/ha [9]

CC(C)[C@]12C[C@@H](OCCOCc3ccccc3)[C@](C)(C[C@@H]1Br)O2 [1-725, (1S,2R,4R,5S)-5-bromo-1-methyl-2-(2-phenylmethoxyethoxy)-4-isopropyl-7-oxabicyclo[2.2.1]heptane]
≥ 80%: inhibition at 1200 g/ha (Amaranthus viridis) | inhibition at 1200 g/ha (Echinochloa crus-galli [5]) | inhibition at 1200 g/ha [9]

CC(C)[C@]12C[C@@H](OCc3ccccc3F)[C@](C)(CC1c1cccc(F)c1)O2 (stereo partly drawn) [1-923, (1S,2R,4R)-2-((2-fluorobenzyl)oxy)-5-(3-fluorophenyl)-4-isopropyl-1-methyl-7-oxabicyclo[2.2.1]heptane]
≥ 80%: inhibition at 1200 g/ha (Echinochloa crus-galli [2]) | inhibition at 75 g/ha (Scirpus juncoides [17]) | inhibition at 1200 g/ha (Echinochloa crus-galli [5]) | pest or weed control at 1200 g/ha [7] | pest or weed control at 1200 g/ha (Scirpus juncoides [8]) | inhibition at 1200 g/ha [9]

CC(C)[C@]12C[C@@H](OCc3ccccc3F)[C@](C)(CC1c1ccccc1)O2 (stereo partly drawn) [1-322, (1S,2R,4R)-2-((2-fluorobenzyl)oxy)-4-isopropyl-1-methyl-5-phenyl-7-oxabicyclo[2.2.1]heptane]
≥ 80%: inhibition at 1200 g/ha (Chenopodium album) | inhibition at 1200 g/ha (Echinochloa crus-galli [2]) | inhibition at 75 g/ha [4] | inhibition at 1200 g/ha (Echinochloa crus-galli [5]) | inhibition at 75 g/ha [6] | pest or weed control at 1200 g/ha [7] | inhibition at 1200 g/ha [9] | inhibition at 75 g/ha (Echinochloa crus-galli [10]) | inhibition at 75 g/ha (Digitaria ciliaris [16]; [18]) | inhibition at 1200 g/ha (Digitaria ciliaris [11])

CCOC(C)O[C@H]1C[C@]2(C)O[C@@]1(C(C)C)C[C@H]2OCc1ccccc1F (stereo partly drawn) [1-213, (1R,28,4S,5R)-2-(1-ethoxyethoxy)-5-((2-fluorobenzyl)oxy)-1-isopropyl-4-methyl-7-oxabicyclo[2.2.1]heptane]
≥ 80%: weed inhibition rate (Monochoria vaginalis [1]) | weed inhibition rate (Echinochloa crus-galli [2]) | weed inhibition rate (Amaranthus viridis) | weed inhibition rate (Digitaria ciliaris [3]) | weed inhibition rate [4] | weed inhibition rate (Echinochloa crus-galli [5]) | weed inhibition rate [6] | weed inhibition rate (Echinochloa crus-galli [12]) | weed inhibition rate (Digitaria ciliaris [13]) | weed inhibition rate [7] | weed inhibition rate (Scirpus juncoides [8]) | weed inhibition rate [9] | weed inhibition rate (Scirpus juncoides [14]) | weed inhibition rate (Echinochloa crus-galli [10]) | weed inhibition rate (Digitaria ciliaris [11])
